Values joined by “and” are separate entries in the source; they are usually repeats but may differ in a detail not shown here. Equal entries are not always repeated.
Tests used:
[1] = system: West Nile virus strain Eg101; assay: Experimental form of West Nile Fever in white mice; conditions: for Protective ratio, % / Average lifetime / Extension of the average lifetime, Δ: 5 mg/kg orally; for Protective ratio, %: 10LD50 subcutaneously; for Average lifetime / Extension of the average lifetime, Δ: 10LD50
Procedure: In the experiment West Nile virus strain Eg101 was used. Infected animals were monitored for 21 days. Their death was controlled, and the average lifetime of the white mice were calculated in the experimental and control groups.
The main criteria of the in vivo effectiveness were the values of protection of the laboratory animals against death and the average lifetime of the animals in a group.

dengue fever virus = assay: Experimental form of dengue fever, virus proliferation in the blood of white mice; assay type: in vivo; conditions: for Level of virus accumulation in the blood, lg PFU/ml: infected intracerebrally
Procedure: To determine antiviral activity, white mice were infected intracerebrally with a dengue fever virus. […] Infected animals were monitored for 21 days. Biological samples were evaluated on day 5 after infection.

TBE virus strain Sof′ in = system: TBE virus strain Sof′ in; parameters: species or system white mice; conditions: mouse, in vivo
[2] = system: human rhinovirus strain (HRV 1B); assay: Antiviral activity against human rhinovirus on an in vivo experimental model (virus in mouse lungs); parameters: species or system mice; conditions: for Infectious virus titer in lungs, lg, TCID50: orally once daily for 3 days from 12 h after infection; for Suppression of the virus reproduction (Δ lg): orally once daily for 3 days, vs normal saline
[3] = Adverse side effects during long-term administration; conditions: long-term administration in therapeutic doses or doses greater by an order of magnitude
HCXV virus = assay: Protective effectiveness against Coxsackie virus (HCXV) infection in mice; assay type: in vivo, white mice; conditions: for Total mortality rate: 10LD50 intramuscularly
[4] = prevention scheme −96 h to −1 h
[5] = treatment scheme +24 h to +168 h
[6] = 30 mg/kg, single administration −144 h before infection
[7] = 30/15 mg/kg, treatment scheme +24 h to +120 h
[8] = 5 mg/kg orally, prevention scheme −96 h to −1 h
[9] = 5 mg/kg orally, treatment scheme +24 h to +168 h
[10] = 0.3 mg/kg orally once daily for 5 days from 24 h after infection
[11] = 3 mg/kg orally once daily for 5 days from 24 h after infection
[12] = 30 mg/kg orally once daily for 5 days from 24 h after infection
[13] = 20 mg/kg, treatment scheme +24 h to +120 h
[14] = ribavirin, treatment scheme +24 h to +120 h

O=C(O)CCCC(=O)NCCc1c[nH]cn1 [Glutaryl histamine, glutaryl histamine]
Protective ratio, % ([1]; prevention scheme −96 h, −72 h, −48 h, −24 h, −1 h): 42.9% | Average lifetime [1, 4]: 11.2 days | Extension of the average lifetime, Δ [1, 4]: 4.2 days | Average lifetime [1, 5]: 9.8 days | Extension of the average lifetime, Δ [1, 5]: 2.8 days | Protective ratio, % [1, 5]: 37.8% | Average lifetime of animals in a group [1, 6]: 10.8 days | Extension of the average lifetime of animals in a group, Δ [1, 6]: 3.7 days | Protection against death, % [1, 6]: 40.0% | Protection against death, % ([1]; 30/15 mg/kg, treatment scheme +24 h, +48 h, +72 h, +96 h, +120 h): 50.0% | Average lifetime of animals in a group [1, 7]: 11.5 days | Extension of the average lifetime of animals in a group, Δ [1, 7]: 4.5 days | Extension of the average lifetime of animals in a group, Δ ([1]; 30/15 mg/kg, treatment scheme +24 h to +120 h, listed as glutaryl histamine): 3.5 days | Degree of inhibition of the virus accumulation, % (dengue fever virus; [8]): 95.5% | Reduction in the level of virus accumulation, lg (dengue fever virus; [8]): 1.6 lg | Level of virus accumulation in the blood, lg PFU/ml (dengue fever virus; 5 mg/kg orally, prevention scheme −96 h to −1 h, day 5 after infection): 5.0 lg PFU/ml | Degree of inhibition of the virus accumulation, % (dengue fever virus; [9]): 98.6% | Reduction in the level of virus accumulation, lg (dengue fever virus; [9]): 1.8 lg | Level of virus accumulation in the blood, lg PFU/ml (dengue fever virus; 5 mg/kg orally, treatment scheme +24 h to +168 h, day 5 after infection): 4.8 lg PFU/ml | Degree of inhibition of the virus accumulation, % (dengue fever virus; [7]): 99.6% | Reduction in the level of virus accumulation, lg (dengue fever virus; [7]): 2.6 lg | Level of virus accumulation in the blood, lg PFU/ml (dengue fever virus; [7]): 4.8 lg PFU/ml | Average lifetime (TBE virus strain Sof′ in): 15.1 days and 15.4 days and 13.6 days and 10.5 days and 10.1 days | Extension of the average lifetime (TBE virus strain Sof′ in): 3.1 days and 3.2 days | Extension of the average lifetime, Δ (TBE virus strain Sof′ in): 3.9 days and 2.4 days | Protection against death, % (TBE virus strain Sof′ in): 30.0% and 40.0% | Protective ratio, % (TBE virus strain Sof′ in): 40% and 35% | Infectious virus titer in lungs, lg, TCID50 ([2]; 15 mg/ml, 48 hrs): 2.8 ± 0.4 lg, TCID50 | Infectious virus titer in lungs, lg, TCID50 ([2]; 15 mg/ml, 72 hrs): 2.1 ± 0.3 lg, TCID50 | Suppression of the virus reproduction (Δ lg) ([2]; 15 mg/ml, 48 hrs): 1.3 Δ lg | Suppression of the virus reproduction (Δ lg) ([2]; 15 mg/ml, 72 hrs): 1.1 Δ lg | Infectious virus titer in lungs, lg, TCID50 ([2]; 30 mg/ml, 48 hrs): 1.5 ± 0.3 lg, TCID50 | Infectious virus titer in lungs, lg, TCID50 ([2]; 30 mg/ml, 72 hrs): 1.0 ± 0.3 lg, TCID50 | Suppression of the virus reproduction (Δ lg) ([2]; 30 mg/ml, 48 hrs): 2.6 Δ lg | Suppression of the virus reproduction (Δ lg) ([2]; 30 mg/ml, 72 hrs): 2.2 Δ lg | Adverse side effects [3]: no adverse side effects have been registered | Average lifetime, (%) (HCXV virus; [10]): 24.4% | Extension of the days lifetime, Δ, days (HCXV virus; [10]): +14.4 days | Protective ratio, % average (HCXV virus; [10]): 45.4% | Total mortality rate (HCXV virus; [10]): 42.9 | Average lifetime, (%) (HCXV virus; [11]): 21.7% | Extension of the days lifetime, Δ, days (HCXV virus; [11]): +11.7 days | Protective ratio, % average (HCXV virus; [11]): 36.4% | Total mortality rate (HCXV virus; [11]): 50.0 | Average lifetime, (%) (HCXV virus; [12]): 19.6% | Extension of the days lifetime, Δ, days (HCXV virus; [12]): +9.6 days | Protective ratio, % average (HCXV virus; [12]): 27.4% | Total mortality rate (HCXV virus; [12]): 57.1

NC(=O)c1ncn([C@@H]2O[C@H](CO)[C@@H](O)[C@H]2O)n1 [Ribavirin, ribavirin, reference compound]
Protection against death, % of animals ([1]; 20 mg/kg, prevention scheme): 50% | Average lifetime of animals in a group [1, 13]: 7.2 days | Extension of the average lifetime of animals in a group, Δ [1, 13]: 0.2 days | Protection against death, % [1, 13]: 10.0% | Degree of inhibition of the virus accumulation, % (dengue fever virus; [14]): 83.4% | Reduction in the level of virus accumulation, lg (dengue fever virus; [14]): 1.0 lg | Level of virus accumulation in the blood, lg PFU/ml (dengue fever virus; [14]): 6.4 lg PFU/ml
